In PubChem BioAssay (NCI):
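Dose response: 5 concentrations. Exposure: 48 h. Format: 96-well plates. Endpoint: linear interpolation; highest concentration if not reached. GI50 marks 50% less growth. The concentration for full growth arrest is given as TGI.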

Tests used:
Experiment in all cases: growth of human tumour cells (NCI), 48 h
[1] = test system: RPMI-8226 leukemia
[2] = test system: HS 578T breast
[3] = test system: DU-145 prostate
[4] = test system: A549 NSCLC
[5] = test system: COLO 205 colon
[6] = test system: NCI-H460 lung
[7] = test system: SW-620 colon
[8] = test system: IGROV1 ovarian
[9] = test system: EKVX NSCLC
[10] = test system: SK-MEL-2 melanoma
[11] = test system: HOP-92 NSCLC
[12] = test system: NCI-H23 lung
[13] = test system: SF-539 CNS
[14] = test system: CCRF-CEM leukemia
[15] = test system: SK-MEL-28 melanoma
[16] = test system: CAKI-1 renal
[17] = test system: TK-10 renal
[18] = test system: T-47D breast
[19] = test system: SF-268 CNS
[20] = test system: HOP-62 NSCLC
[21] = test system: HCC-2998 colon
[22] = test system: SNB-75 CNS
[23] = test system: HCT-15 colon
[24] = test system: M14 melanoma
[25] = test system: 786-0 renal
[26] = test system: A498 renal
[27] = test system: MDA-MB-231 breast
[28] = test system: MOLT-4 leukemia

## C/C(=N\NC(N)=S)c1nc2ccc(Cl)cc2[nH]1
[1]
  GI50: 3.3 µM
  TGI: 30.6 µM
[2]
  GI50: 12.2 µM
  TGI: > 50 µM
[3]
  GI50: 1.97 µM
  TGI: 8.8 µM
[4]
  GI50: 2.3 µM
  TGI: 9.95 µM
[5]
  GI50: 2.17 µM
  TGI: 10.1 µM
[6]
  GI50: 1.33 µM
  TGI: 5.83 µM
[7]
  GI50: 2.96 µM
  TGI: > 50 µM
[8]
  GI50: 3.06 µM
  TGI: 17.8 µM
[9]
  GI50: 0.966 µM
  TGI: 12.3 µM
[10]
  GI50: 2.81 µM
  TGI: 44.6 µM
[11]
  GI50: 12 µM
  TGI: 39.1 µM
[12]
  GI50: 5.51 µM
  TGI: 13.7 µM
[13]
  GI50: 2.45 µM
  TGI: 9.7 µM
[14]
  GI50: 2.11 µM
  TGI: > 50 µM
[15]
  GI50: 5.7 µM
  TGI: 35.9 µM
[16]
  GI50: 0.287 µM
  TGI: 1.74 µM
[17]
  GI50: 2.6 µM
  TGI: 20.7 µM
[18]
  GI50: 4.48 µM
  TGI: > 50 µM
[19]
  GI50: 2.03 µM
  TGI: 11.3 µM
[20]
  GI50: 2.7 µM
  TGI: 11.9 µM
[21]
  GI50: 4.1 µM
  TGI: 16.4 µM
[22]
  GI50: 2.29 µM
  TGI: 15.6 µM
[23]
  GI50: 0.857 µM
  TGI: 12.5 µM
[24]
  GI50: 1.8 µM
  TGI: 28.5 µM
[25]
  GI50: 1.59 µM
  TGI: 7.96 µM
[26]
  GI50: 7.11 µM
  TGI: 22.5 µM
[27]
  GI50: 3.53 µM
  TGI: 37.9 µM
[28]
  GI50: 1.78 µM
  TGI: > 50 µM
